# Publication PMC6812191 (Heliyon, 2019)
# Columns and labels:
# Format in all cases: cell-based
# [1] = target: hERG potassium channel (Homo sapiens, UniProt Q12809); assay: whole-cell patch clamp, tail current inhibition
# [2] = target: hERG potassium channel (Homo sapiens, UniProt Q12809, T623A); assay: whole-cell patch clamp, inhibition at […]
# [3] = target: hERG potassium channel (Homo sapiens, UniProt Q12809, S624A); assay: whole-cell patch clamp, concentration response
# [4] = target: hERG potassium channel (Homo sapiens, UniProt Q12809, F656A); assay: whole-cell patch clamp, inhibition at […]
# [5] = target: hERG potassium channel (Homo sapiens, UniProt Q12809, V625A); assay: whole-cell patch clamp, inhibition at […]
# [6] = target: hERG potassium channel (Homo sapiens, UniProt Q12809, Y652A); assay: whole-cell patch clamp, inhibition at […]
# Sequence of hERG potassium channel (Homo sapiens, UniProt Q12809, Y652A) (Q12809 whole entry Y652A): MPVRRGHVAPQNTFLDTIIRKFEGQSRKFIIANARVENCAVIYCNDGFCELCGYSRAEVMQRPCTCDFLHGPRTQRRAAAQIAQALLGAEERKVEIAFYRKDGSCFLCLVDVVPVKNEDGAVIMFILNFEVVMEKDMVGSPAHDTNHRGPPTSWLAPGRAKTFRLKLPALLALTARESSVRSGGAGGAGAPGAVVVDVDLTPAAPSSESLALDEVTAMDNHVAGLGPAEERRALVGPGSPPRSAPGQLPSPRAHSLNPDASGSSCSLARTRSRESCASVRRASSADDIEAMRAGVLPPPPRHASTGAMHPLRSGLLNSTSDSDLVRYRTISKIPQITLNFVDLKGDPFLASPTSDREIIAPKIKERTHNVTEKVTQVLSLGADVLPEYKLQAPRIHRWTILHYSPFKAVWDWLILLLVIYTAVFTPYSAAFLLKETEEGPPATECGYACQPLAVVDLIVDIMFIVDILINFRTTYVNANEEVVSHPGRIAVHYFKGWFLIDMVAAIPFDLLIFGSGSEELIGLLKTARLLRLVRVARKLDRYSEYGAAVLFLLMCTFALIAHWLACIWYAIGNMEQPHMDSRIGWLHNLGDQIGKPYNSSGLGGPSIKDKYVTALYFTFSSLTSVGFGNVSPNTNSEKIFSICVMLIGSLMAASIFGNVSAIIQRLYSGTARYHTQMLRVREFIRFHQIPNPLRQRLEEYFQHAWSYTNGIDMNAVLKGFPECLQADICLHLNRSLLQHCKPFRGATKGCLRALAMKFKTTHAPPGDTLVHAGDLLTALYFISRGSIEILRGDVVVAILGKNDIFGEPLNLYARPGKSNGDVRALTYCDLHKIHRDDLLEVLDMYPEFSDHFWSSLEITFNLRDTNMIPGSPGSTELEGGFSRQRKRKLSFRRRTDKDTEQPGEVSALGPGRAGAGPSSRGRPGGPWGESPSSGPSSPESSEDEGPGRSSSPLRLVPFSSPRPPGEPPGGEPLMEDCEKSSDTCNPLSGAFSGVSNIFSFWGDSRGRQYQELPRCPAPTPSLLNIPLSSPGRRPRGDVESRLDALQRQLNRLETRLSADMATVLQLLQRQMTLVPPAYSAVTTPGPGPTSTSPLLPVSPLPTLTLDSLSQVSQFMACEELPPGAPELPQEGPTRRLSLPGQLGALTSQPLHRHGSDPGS
# Sequence of hERG potassium channel (Homo sapiens, UniProt Q12809) (Q12809 whole entry): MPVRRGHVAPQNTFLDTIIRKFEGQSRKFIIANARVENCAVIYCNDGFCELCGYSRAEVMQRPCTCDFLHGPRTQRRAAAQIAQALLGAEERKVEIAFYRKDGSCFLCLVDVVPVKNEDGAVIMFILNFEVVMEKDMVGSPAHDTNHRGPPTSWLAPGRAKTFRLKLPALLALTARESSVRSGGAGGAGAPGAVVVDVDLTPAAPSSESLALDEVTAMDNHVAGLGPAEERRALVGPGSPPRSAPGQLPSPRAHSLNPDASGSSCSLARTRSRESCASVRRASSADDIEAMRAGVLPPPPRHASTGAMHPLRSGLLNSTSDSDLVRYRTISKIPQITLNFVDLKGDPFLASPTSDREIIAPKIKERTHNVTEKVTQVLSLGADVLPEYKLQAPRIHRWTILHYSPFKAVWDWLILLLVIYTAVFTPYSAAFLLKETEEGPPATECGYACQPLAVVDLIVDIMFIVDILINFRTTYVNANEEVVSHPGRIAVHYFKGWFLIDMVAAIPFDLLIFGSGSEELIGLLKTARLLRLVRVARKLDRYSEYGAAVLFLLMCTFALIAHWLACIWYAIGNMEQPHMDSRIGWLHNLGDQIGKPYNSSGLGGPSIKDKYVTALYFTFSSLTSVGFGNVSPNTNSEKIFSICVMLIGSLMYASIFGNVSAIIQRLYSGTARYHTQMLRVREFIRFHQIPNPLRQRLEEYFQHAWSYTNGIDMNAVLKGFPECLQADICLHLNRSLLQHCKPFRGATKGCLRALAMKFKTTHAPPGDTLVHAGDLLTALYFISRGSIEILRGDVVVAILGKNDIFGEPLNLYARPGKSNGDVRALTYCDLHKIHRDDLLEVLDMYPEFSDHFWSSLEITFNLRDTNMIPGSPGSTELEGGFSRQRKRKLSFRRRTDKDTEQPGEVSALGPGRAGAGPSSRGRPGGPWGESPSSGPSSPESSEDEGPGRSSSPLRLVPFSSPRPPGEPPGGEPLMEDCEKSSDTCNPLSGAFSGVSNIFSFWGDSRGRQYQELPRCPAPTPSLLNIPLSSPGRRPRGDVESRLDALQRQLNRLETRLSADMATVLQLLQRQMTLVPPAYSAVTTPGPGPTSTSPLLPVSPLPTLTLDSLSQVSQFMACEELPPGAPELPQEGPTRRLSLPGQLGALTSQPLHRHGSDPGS
# Sequence of hERG potassium channel (Homo sapiens, UniProt Q12809, T623A) (Q12809 whole entry T623A): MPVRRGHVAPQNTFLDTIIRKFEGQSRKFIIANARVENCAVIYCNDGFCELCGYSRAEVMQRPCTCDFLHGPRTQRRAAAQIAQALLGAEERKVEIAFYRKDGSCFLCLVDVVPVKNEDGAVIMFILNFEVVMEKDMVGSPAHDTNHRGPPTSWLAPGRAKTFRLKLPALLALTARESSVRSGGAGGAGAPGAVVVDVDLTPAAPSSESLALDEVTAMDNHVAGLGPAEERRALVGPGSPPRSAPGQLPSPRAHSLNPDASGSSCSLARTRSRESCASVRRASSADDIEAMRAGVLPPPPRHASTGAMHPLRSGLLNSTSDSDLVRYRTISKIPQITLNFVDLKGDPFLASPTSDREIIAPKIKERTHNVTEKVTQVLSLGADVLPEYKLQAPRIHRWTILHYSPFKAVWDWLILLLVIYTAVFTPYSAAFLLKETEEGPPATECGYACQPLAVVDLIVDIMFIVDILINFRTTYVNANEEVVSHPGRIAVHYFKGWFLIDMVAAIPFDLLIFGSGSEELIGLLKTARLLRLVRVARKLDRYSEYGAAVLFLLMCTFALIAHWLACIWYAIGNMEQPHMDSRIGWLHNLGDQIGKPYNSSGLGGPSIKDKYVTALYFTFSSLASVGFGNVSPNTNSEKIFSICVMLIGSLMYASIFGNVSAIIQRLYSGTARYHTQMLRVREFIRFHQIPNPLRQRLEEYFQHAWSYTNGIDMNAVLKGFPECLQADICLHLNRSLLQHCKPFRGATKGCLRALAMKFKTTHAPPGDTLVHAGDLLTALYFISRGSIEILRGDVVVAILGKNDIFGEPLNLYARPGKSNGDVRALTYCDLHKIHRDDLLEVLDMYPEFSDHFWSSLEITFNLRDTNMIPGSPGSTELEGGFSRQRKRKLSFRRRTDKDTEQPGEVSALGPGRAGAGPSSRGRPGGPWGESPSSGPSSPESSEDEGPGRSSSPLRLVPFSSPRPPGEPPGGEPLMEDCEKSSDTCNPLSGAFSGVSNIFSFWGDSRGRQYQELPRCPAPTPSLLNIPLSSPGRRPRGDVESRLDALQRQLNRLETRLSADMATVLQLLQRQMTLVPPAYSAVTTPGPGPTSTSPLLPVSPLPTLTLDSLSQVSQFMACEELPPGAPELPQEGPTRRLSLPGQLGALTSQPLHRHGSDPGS
# Sequence of hERG potassium channel (Homo sapiens, UniProt Q12809, V625A) (Q12809 whole entry V625A): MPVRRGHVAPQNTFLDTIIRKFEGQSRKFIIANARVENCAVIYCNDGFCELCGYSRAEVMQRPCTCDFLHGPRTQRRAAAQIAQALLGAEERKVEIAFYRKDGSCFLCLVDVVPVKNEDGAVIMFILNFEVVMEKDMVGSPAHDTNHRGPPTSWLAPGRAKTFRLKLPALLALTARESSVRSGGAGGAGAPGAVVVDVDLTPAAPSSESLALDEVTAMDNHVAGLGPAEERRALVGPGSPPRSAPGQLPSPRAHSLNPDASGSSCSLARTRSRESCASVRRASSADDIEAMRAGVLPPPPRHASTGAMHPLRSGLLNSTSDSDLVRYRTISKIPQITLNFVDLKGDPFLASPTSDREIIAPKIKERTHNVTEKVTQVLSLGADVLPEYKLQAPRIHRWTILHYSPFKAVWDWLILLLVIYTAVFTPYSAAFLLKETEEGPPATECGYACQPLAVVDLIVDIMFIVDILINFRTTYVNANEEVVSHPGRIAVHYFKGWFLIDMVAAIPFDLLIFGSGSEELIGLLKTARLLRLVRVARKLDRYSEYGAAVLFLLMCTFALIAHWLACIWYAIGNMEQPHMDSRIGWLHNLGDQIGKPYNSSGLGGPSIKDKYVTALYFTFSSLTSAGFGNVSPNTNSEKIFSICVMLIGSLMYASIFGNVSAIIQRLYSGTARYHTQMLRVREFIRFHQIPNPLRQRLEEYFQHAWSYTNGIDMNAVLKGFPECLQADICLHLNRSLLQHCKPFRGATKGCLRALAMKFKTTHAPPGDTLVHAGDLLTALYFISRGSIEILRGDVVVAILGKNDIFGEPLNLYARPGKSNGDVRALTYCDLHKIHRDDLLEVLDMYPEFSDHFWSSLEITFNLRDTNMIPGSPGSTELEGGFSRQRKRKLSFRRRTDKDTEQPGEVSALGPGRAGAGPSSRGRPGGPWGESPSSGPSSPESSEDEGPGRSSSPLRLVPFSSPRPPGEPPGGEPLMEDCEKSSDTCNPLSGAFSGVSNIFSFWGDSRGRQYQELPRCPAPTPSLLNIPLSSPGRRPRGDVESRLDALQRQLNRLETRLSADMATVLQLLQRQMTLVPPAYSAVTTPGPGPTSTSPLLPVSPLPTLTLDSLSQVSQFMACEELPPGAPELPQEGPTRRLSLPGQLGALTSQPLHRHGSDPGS
smiles,measurement,setting,value
CC1=C(O)C(=O)C=C2C1=CC=C1[C@@]2(C)CC[C@@]2(C)[C@@H]3C[C@](C)(C(=O)O)CC[C@]3(C)CC[C@]12C [Celastrol],IC50,[1],830 nM
same,inhibition at 1 µM,[2],36.2 ± 0.4%
same,IC50,[3],4000 ± 300 nM
same,inhibition at 1 µM,[4],34.5 ± 1.5%
same,inhibition at 1 µM,[5],51.6 ± 4.3%
same,inhibition at 1 µM,[6],56.3 ± 1.6%
